Data on 8 molecules can be found in BindingDB's records for doi:10.1021/jm960455s (Bristol-Myers Squibb Pharmaceutical Research Institute, 1997).

A short description of assay [1]: Effective concentration for stimulation of platelet aggregation.
Assay [2] in a line: Concentration of compound required to inhibit agonist (SFLLRNP-NH2, at 3 uM) induced platelet aggregation by 50%.
Experiment in assay [3]: as above
The source holds these as a separate data set.

Non-standard residues stand in square brackets, D forms with d. Residues, ends and D or L forms follow the SMILES beside them. *: point of attachment. Phe(4-guanidino) = N=C(N)Nc1ccc(C[CH](N)C(=O)O)cc1; Phe(4-F) = N[CH](Cc1ccc(F)cc1)C(=O)O; 2Nal = N[C@@H](Cc1ccc2ccccc2c1)C(=O)O; Benzoyl(4-Cl) = O=C(c1ccc(Cl)cc1)*; X5 = O=C(c1cc2ccccc2[nH]1)*; βAla = NCCC(=O)O

Consider `COc1ccc(C[C@H](NC(=O)[C@@H](N)CO)C(=O)N[C@@H](CC(C)C)C(=O)N[C@@H](CC(C)C)C(=O)N[C@@H](CCCN=C(N)N)C(N)=O)cc1`, for which a half-maximal effect in assay [1] (EC50) was put at 720 nM.
With `CC(C)CC(NC(=O)C(Cc1ccc(N=C(N)N)cc1)NC(=O)C(Cc1ccc(F)cc1)NC(=O)c1cc2ccccc2[nH]1)C(=O)NC(CCCNC(=N)N)C(N)=O` (stereo not drawn) [1H-Indole-2-carboxylic acid [1-[1-[1-(1-carbamoyl-4-guanidino-butylcarbamoyl)-3-methyl-butylcarbamoyl]-2-(4-guanidino-phenyl)-ethylcarbamoyl]-2-(4-fluoro-phenyl)-ethyl]-amide] (X5-[Phe(4-F)][Phe(4-guanidino)]LR-NH2; configuration not given here), a half-maximal effect in assay [1] (EC50) was put at 1800 nM.
As for `CC(=O)N(C(=O)C=Cc1cccc(Cl)c1)C(Cc1ccc(F)cc1)C(=O)NC(Cc1ccc(N=C(N)N)cc1)C(=O)NC(CC(C)C)C(=O)NC(CCCNC(=N)N)C(N)=O` (stereo not drawn) [2-[2-[2-{Acetyl-[(E)-3-(3-chloro-phenyl)-acryloyl]-amino}-3-(4-fluoro-phenyl)-propionylamino]-3-(4-guanidino-phenyl)-propionylamino]-4-methyl-pentanoic acid (1-carbamoyl-4-guanidino-butyl)-amide], in assay [2], the IC50 (commonly the concentration that gives 50% inhibition) stood at 80 nM.
On to `CC(=O)N(C(=O)C=Cc1ccccc1)C(Cc1ccc(F)cc1)C(=O)NC(Cc1ccc(N)cc1)C(=O)NC(CC(C)C)C(=O)NC(CCCNC(=N)N)C(N)=O` (stereo not drawn) [2-[2-[2-{Acetyl-[(E)-(3-phenyl-acryloyl)]-amino}-3-(4-fluoro-phenyl)-propionylamino]-3-(4-amino-phenyl)-propionylamino]-4-methyl-pentanoic acid (1-carbamoyl-4-guanidino-butyl)-amide], for which the midpoint of the response in assay [1], the EC50, lay at 60000 nM.
Consider `CC(=O)NCCC(=O)N[C@@H](Cc1ccc(F)cc1)C(=O)N[C@@H](Cc1ccc2ccccc2c1)C(=O)N[C@@H](CC(C)C)C(=O)N[C@@H](CCCN=C(N)N)C(N)=O` [2-{(R)-2-[2-(3-Acetylamino-propionylamino)-3-(4-fluoro-phenyl)-propionylamino]-3-naphthalen-2-yl-propionylamino}-4-methyl-pentanoic acid (1-carbamoyl-4-guanidino-butyl)-amide] (Ac-[βAla][Phe(4-F)][2Nal]LR-NH2), for which the EC50 (as a rule, the concentration giving half of the maximal effect) in assay [1] stood at 270 nM.
In the case of `CC(=O)N(C(=O)C=Cc1ccccc1)C(Cc1ccc(F)cc1)C(=O)NC(=O)NCCCC(NC(=O)C(CC(C)C)NC(=O)C(N)CCCNC(=N)N)C(=O)O` (stereo not drawn) [5-{3-[2-{Acetyl-[(E)-(3-phenyl-acryloyl)]-amino}-3-(4-fluoro-phenyl)-propionyl]-ureido}-2-[2-(2-amino-5-guanidino-pentanoylamino)-4-methyl-pentanoylamino]-pentanoic acid], the EC50 in assay [1] came to 67000 nM.
Take `CC(=O)N(C(=O)c1ccc(-c2ccccc2)cc1)C(Cc1ccc(F)cc1)C(=O)NC(Cc1ccc(N=C(N)N)cc1)C(=O)NC(CC(C)C)C(=O)NC(CCCNC(=N)N)C(N)=O` (stereo not drawn) [Biphenyl-4-carboxylic acid acetyl-[1-[1-[1-(1-carbamoyl-4-guanidino-butylcarbamoyl)-3-methyl-butylcarbamoyl]-2-(4-guanidino-phenyl)-ethylcarbamoyl]-2-(4-fluoro-phenyl)-ethyl]-amide]: the IC50 in assay [3] came out at 430 nM.
Regarding `CC(C)CC(NC(=O)C(Cc1ccc(N=C(N)N)cc1)NC(=O)C(Cc1ccc(F)cc1)NC(=O)c1ccc(Cl)cc1)C(=O)NC(CCCNC(=N)N)C(N)=O` (stereo not drawn) [N-[1-[1-[1-(1-Carbamoyl-4-guanidino-butylcarbamoyl)-3-methyl-butylcarbamoyl]-2-(4-guanidino-phenyl)-ethylcarbamoyl]-2-(4-fluoro-phenyl)-ethyl]-4-chloro-benzamide] ({Benzoyl(4-Cl)}-[Phe(4-F)][Phe(4-guanidino)]LR-NH2; configuration not given here), the midpoint of the response in assay [1], the EC50, lay at 3700 nM.
